Assay results reported in patent US20230103444A1 (The Regents of the University of Colorado, a Body Corporate, priority 2020, published 2023).
Read-outs that look alike come from different tables or passages of the source.

Key:
SW620 tumor organoids [1] = assay: Western blot of treated SW620 tumor organoids; format: cell-based, human
Protocol: CRC cell lines and homogenized tumor tissue samples from mice were resuspended in RIPA lysis buffer (20 mM Tris-HCl (pH 7.5), 150 mM NaCl, 1 mM Na2EDTA, 1 mM EGTA, 1% NP-40, 1% sodium deoxycholate, 2.5 mM sodium pyrophosphate, 1 mM b-glycerophosphate, 1 mM Na3VO4, 0.1 mM PMSF. Protein concentration was determined using the Pierce™ BCA protein assay kit (ThermoFisher, Waltham, Mass.). Forty micrograms of sample were run on 10% Bis-Tris gels. Following electrophoresis, the proteins were transferred to a nitrocellulose membrane. The membranes were blocked at room temperature with 5% non-fat milk in TBS/Tween® 20 (TBST contains 20 mM Tris, 150 mM NaCl, and 0.1% Tween®20 (Croda International PLC, Snaith, UK) for 1 hour at room temperature. Membranes were washed three times with TBST. Blots were incubated with the appropriate primary antibody in 5% nonfat milk in TBST overnight at 4° C. Membranes were washed three times with TBST and then incubated with appropriate secondary antibody for one hour. Membranes were washed again with TBST three times. Blots were exposed using SuperSignal™West Pico PLUS Chemiluminescent Substrate (ThermoFisher, Waltham, Mass.) and imaged using a ChemiDoc imaging system (Bio-Rad, Hercules, Calif.). [See: Abbott et al., 2020 and its Supplementary Information for Western Blots]

[2] = Pharmacokinetics in CD-1 mice
Protocol: Whole blood was harvested at specific time points and the separated plasma frozen at −80° C. for storage or used for LC-MS/MS analysis.

HCT116 tumor organoids = assay: Tumor organoid cytotoxicity (CellTiter-Glo 3D); format: cell-based, human; conditions: Homo sapiens
Protocol: (§1) Cell based cytotoxicity dose response and combination studies. […] Plates were then incubated for 3 days before treatment.
Cell Line Tumor Organoid Culture.
Tumor Organoid Cytotoxicity.

SW620 tumor organoids [3] = assay: Synergy studies with SN38 (LOEWE synergy scores); format: cell-based, human; design: key to LOEWE Synergy Score: % response beyond expectation; <-10 antagonism, -10–10 additive, >10 synergy; conditions: for LOEWE Synergy Score: compound at its IC50 (6: 5 μM; 6.3, 6.11: 3 μM)
Protocol: as §1
(e.g., synergy score 20 corresponds to 20% of response beyond expectation). According to our experience, the synergy scores near 0 gives limited confidence on synergy or antagonism.
When the synergy score is: • Less than −10: the interaction between two drugs is likely to be antagonism; • From −10 to 10: the interaction between two drugs is likely to be additivity; • Larger than 10: the interaction between two drugs is likely to be synergy.

[4] = Mouse liver microsome stability; conditions: CD-1, mouse, liver microsomes; for half-life: female, initial study
Protocol: Microsome stability. CD-1 mouse microsomes were commercially purchased and the reactions were performed as previously described. […] The master mix was pre-incubated at 37° C. for 5 min, then 1 mM NADPH was added to start the microsomal activity reaction and maintained at 37° C. throughout the time course. Reactions were stopped at 0, 5, 15, 30, 45, and 60 min by adding 200 μL acetonitrile and analyzed by mass spectrometry. The appropriate microsome controls were also performed in the same reaction conditions.

[5] = tested on: vimentin promoter activity; assay: VimPro-GFP reporter 3D high-content imaging in tumor organoids; format: cell-based, human; conditions: 72 h
Protocol: After validating hits 5-7 against CHD1L mediated TCF transcription, the ability of these compounds to reverse EMT and other malignant properties in CRC were evaluated. E-cadherin and vimentin are putative biomarkers for the epithelial and mesenchymal phenotypes, respectively. [McDonald et al., 2015] Loss of E-cadherin and gain of vimentin are also clinical biomarkers of poor prognosis. [Yun et al., 2014; Richardson et al., 2012; Dhanasekaran et al., 2001; Kashiwagi et al., 2010; Toiyama et al., 2013] Accordingly, lentiviral promoter driven reporters for E-cadherin (pCDH1-EcadPro-RFP) and vimentin (pCDH1-VimPro-GFP) were developed, which faithfully report E-cadherin and vimentin protein expression, respectively. [Zhou et al., 2016; Abraham et al., 2019] SW620 cells transduced with either EcadPro-RFP or VimPro-GFP were cultured as tumor organoids for 72 h, reaching a diameter of 600 μm. Tumor organoids were treated with compounds 5-7 for an additional 72 h to determine the effective concentration 50 percent (EC50) for modulating promoter activity. Changes in promoter expression was quantified using a 3D confocal image […] based high-content analysis algorithm (FIG. 2A-2B). [Zhou et al., 2016; Abraham et al., 2019]
Stable VimPro-GFP or EcadPro-RFP SW620 reporter cells were generated using pCDH imPro-GFP-EF1-puro virus or pCDH-EcadPro-mCherry-EF1-puro virus as previously reported. [Zhou et al., 2016; Abraham et al., 2019] The stable fluorescently labeled reporter cells were used to generate tumor organoids as described herein. Tumor organoids were treated with CHD1L inhibitors at 10 μM for an additional 72 h. Following treatment, tumor organoids were stained with 16 μM of Hoechst 33342 for 1 h (nuclei stain). Images were taken with a 5× air objective. Z-stacks were set at 26.5 μm apart for a total of 15 optical slices. Imaging and high-content analysis were performed using an Opera Phenix™ and Harmony® software (PerkinElmer, Hopkinton, Mass.). Nuclei were identified within each layer and cells were found with either GFP or mCherry channel. The fluorescence intensities of each channel were calculated and thresholds were set based on the background intensities. Percentages of GFP or mCherry RFP positive cells were calculated and normalized to the DMSO treated group.
3D High-Content Imaging and Analysis of EMT Dual-Reporter Activity. Tumor organoids were imaged using the Opera Phenix high-content screening system (PerkinElmer) in confocal mode utilizing a 10× air objective (NA 0.3). […] Organoids were also imaged in Brightfield to segment and perform high-content analysis of dual reporter specific fluorescence intensity. […] Both fluorescent signals were quantified and normalized as previously described. […]

[6] = HCT-116, single agent, Table 4A, read-out: Tumor Organoid Cytotoxicity IC50 (μM) HCT116

Cc1cc(Nc2ccc(NC(=O)Cc3cccs3)cc2)nc(N2CCCC2)n1 [Compound 6, N-(4-((6-methyl-2-(pyrrolidin-1-yl)pyrimidin-4-yl)amino)phenyl)-2-(thiophen-2-yl)acetamide]
E-cadherin cleavage (marker of apoptosis) (SW620 tumor organoids [1]): E-cadherin is cleaved | cleaved PARP1, cleaved caspase 8 and cleaved caspase 3 (SW620 tumor organoids [1]; relative to DMSO control): increases in cleaved PARP1, cleaved caspase 8, and cleaved caspase 3 | AUC(0-t) ([2]; female, CD-1, mouse, plasma, ip, 50 mg/kg): 80300 ng·h/mL | Cmax ([2]; female, CD-1, mouse, plasma, ip, 50 mg/kg, CMax (ng/mL), single i.p. 50 mg/kg): ~30000 ng/mL | CMax (ng/mL) ([2]; plasma, single i.p. 50 mg/kg, 50 mg/kg): 29,900 ng/mL | CL ([2]; single i.p. 50 mg/kg): 10.3 mL/min/kg | V2 ([2]; single i.p. 50 mg/kg): 2.7 L/kg | IC50 (HCT116 tumor organoids; [6]): 4.93 µM | LOEWE Synergy Score (SW620 tumor organoids [3]; SN38 0.64 nM): −5 | LOEWE Synergy Score (SW620 tumor organoids [3]; SN38 16 nM): 35 | LOEWE Synergy Score (SW620 tumor organoids [3]; SN38 80 nM): 45 | LOEWE Synergy Score (SW620 tumor organoids [3]; SN38 400 nM): 41 | LOEWE Synergy Score (SW620 tumor organoids [3]; SN38 2000 nM): 28 | LOEWE Synergy Score (SW620 tumor organoids [3]; SN38 10000 nM): 16 | LOEWE Synergy Score (SW620 tumor organoids [3]; SN38 […]): 36 | synergism with irinotecan (and SN38), in words (SW620 tumor organoids [3]; killing SW620 tumor organoids): synergism | half-life ([4]; Microsomal Half-life (min), female CD-1 mouse microsomes): 17 min | half-life ([4]; half-life in liver microsomes): < 20 min

Cc1cc(Nc2ccc(NC(=O)c3c[nH]c4ccccc34)cc2)nc(N2CCCC2)n1 [Compound 6.3, N-(4-((6-methyl-2-(pyrrolidin-1-yl)pyrimidin-4-yl)amino)phenyl)-1H-indole-3-carboxamide]
IC50 (HCT116 tumor organoids; HCT-116, 72 h, Table 6, read-out: 3 D Cytotoxicity 72 hr IC50 (μM) HCT116): 3.7 µM | IC50 (HCT116 tumor organoids; [6]): 3.72 µM | downregulation of vimentin promoter activity (VimPro-GFP), in words ([5]; SW620 or HCT116 tumor organoids): downregulation of vimentin | LOEWE Synergy Score (SW620 tumor organoids [3]; SN38 0.64 nM): 4 | LOEWE Synergy Score (SW620 tumor organoids [3]; SN38 16 nM): 36 | LOEWE Synergy Score (SW620 tumor organoids [3]; SN38 80 nM): 54 | LOEWE Synergy Score (SW620 tumor organoids [3]; SN38 400 nM): 48 | LOEWE Synergy Score (SW620 tumor organoids [3]; SN38 2000 nM): 35 | LOEWE Synergy Score (SW620 tumor organoids [3]; SN38 10000 nM): 25 | LOEWE Synergy Score (SW620 tumor organoids [3]; SN38 […]): 31 | potency of SN38 combination relative to SN38 alone (SW620 tumor organoids [3]; killing SW620 tumor organoids): 150 fold | synergism with irinotecan (and SN38), in words (SW620 tumor organoids [3]; killing SW620 tumor organoids): synergism | half-life at 10 μM ([4]; pH 7.4, in vitro liver microsome half-life, second series, different liver microsome preparation): 98 min

COc1ccc(-c2nc(S(=O)(=O)c3ccccc3)c(S(C)(=O)=O)o2)cc1 [Compound 5]
E-cadherin cleavage (marker of apoptosis) (SW620 tumor organoids [1]): E-cadherin is cleaved | EC50 ([5]; Homo sapiens, SW-620, read-out: EC50 downregulation of vimentin promoter activity, SW620 tumor organoids): 15.6 ± 1.7 µM
